Consider 28 molecules from patent US20260232625A1, “NOVEL DECURSIN DERIVATIVE AND USE THEREOF FOR PREVENTING OR TREATING NON-SMALL CELL LUNG CANCER” (JAEIN R&P INC., priority 2023, published 2026).

One experiment deals with A549. Kind of experiment: MTT cytotoxicity evaluation against A549 cells. The experiment is classed as cell-based, human. The note with it: Homo sapiens, A549, 48 h, Method 1: 12.5-200 μM, 48 hours. As for the experimental part:
A549 (human lung cancer cells) were obtained from the American Type Culture Collection (ATCC) and used. The cells were cultured in a medium containing 10% FBS, 1% penicillin (10,000 units/mL), and streptomycin (10 mg/mL), or in Dulbecco's Modified Eagle's Medium (DMEM), at 37° C. under 5% CO2 conditions.
To measure cytotoxicity, an MTT assay was used. Specifically, A549 cells cultured according to Experimental Example 1 were seeded into a 96-well plate at a density of 2.5×10^4 cells/mL in 100 μL, and incubated for 24 hours. Thereafter, the cells were treated with either the compounds prepared according to Examples 1 to 27 or, as comparative agents, decursin or docetaxel. The prepared compounds and decursin were each administered to the A549 cell line at concentrations of 0 μM (untreated), 12.5 μM, 25 μM, 50 μM, 100 μM, and 200 μM, while docetaxel was administered at concentrations of 0 nM (untreated), 0.1 nM, 1 nM, 10 nM, 100 nM, and 1,000 nM, followed by incubation for an additional 48 hours. Then, 20 μL of MTT solution was added (Method 1). Alternatively, the compounds prepared according to Examples 28 to 30, the compound of Example 5 as a reference compound or, as comparative agents, decursin or docetaxel, were used. The prepared compounds, the compound of Example 5, and decursin were each administered at concentrations of 0 μM (untreated), 3.125 μM, 6.25 μM, 12.5 μM, 25 μM, and 50 μM, while docetaxel was administered at concentrations of 0 nM (untreated), 0.6 nM, 1.25 nM, 2.5 nM, 5 nM, and 10 nM, and treated in the same manner as described in Method 1 (Method 2). The cells treated with MTT solution were incubated for 2 hours, the medium was removed, and the formazan blue crystals formed by the cells were treated with an MTT lysis buffer, followed by incubation in a cell incubator for 24 hours. The MTT lysis buffer was prepared by mixing N,N-dimethylformamide with water in a 1:1 ratio to give a solution containing 20% SIDS (sodium dodecyl sulfate) at the final concentration. The optical density at 590 nm was measured using a microplate reader (FIGS. 1a to 1d). Based on the measured values, the cytotoxicity (IC50) against A549 was calculated, and the results are disclosed in Table 1 together with the structural formulae.
One may read the IC50 as the concentration that inhibits the measured activity by half. `CC1(C)Oc2cc3oc(=O)ccc3cc2C[C@H]1OC(=O)CCn1ccnc1` [Example 10, (R)-2,2-dimethyl-8-oxo-2,3,4,8-tetrahydropyrano[3,2-g]chromen-3-yl 3-(1H-imidazol-1-yl)propanoate] came in with an IC50 greater than 200 µM.
Molecule `CC1(C)Oc2cc3oc(=O)ccc3cc2C[C@H]1OC(=O)/C=C/c1ccccn1` [Example 12, (R,E)-2,2-dimethyl-8-oxo-2,3,4,8-tetrahydropyrano[3,2-g]chromen-3-yl 3-(pyridin-2-yl)acrylate] showed an IC50 of 184 µM.
Still for that read-out and setting: under `CC1(C)Oc2cc3oc(=O)ccc3cc2C[C@@H]1OC(=O)CCc1ccc2c(c1)OCO2` [Example 6, (S)-2,2-dimethyl-8-oxo-2,3,4,8-tetrahydropyrano[3,2-g]chromen-3-yl 3-(benzo[d][1,3]dioxol-5-yl)propanoate] stands no less than 219 µM; under `CC1(C)Oc2cc3oc(=O)ccc3cc2C[C@@H]1OC(=O)CCc1ccccn1` [Example 2, (S)-2,2-dimethyl-8-oxo-2,3,4,8-tetrahydropyrano[3,2-g]chromen-3-yl 3-(pyridin-2-yl)propanoate], greater than 200 µM; under `CN(C)S(=O)(=O)c1ccc(/C=C/C(=O)O[C@H]2Cc3cc4ccc(=O)oc4cc3OC2(C)C)cc1` [Example 8, (S,E)-2,2-dimethyl-8-oxo-2,3,4,8-tetrahydropyrano[3,2-g]chromen-3-yl 3-(4-(N,N-dimethylsulfamoyl)phenyl)acrylate], greater than 200 µM.
`CC1(C)Oc2cc3oc(=O)ccc3cc2C[C@H]1OC(=O)CCc1ccc2c(c1)OCO2` [Example 15, (R)-2,2-dimethyl-8-oxo-2,3,4,8-tetrahydropyrano[3,2-g]chromen-3-yl 3-(benzo[d][1,3]dioxol-5-yl)propanoate] returned an IC50 greater than 200 µM.
Still for that read-out and setting: under `CN(C)S(=O)(=O)c1ccc(/C=C/C(=O)N[C@@H]2c3cc4ccc(=O)oc4cc3OC(C)(C)[C@H]2O)cc1` [Example 26, (E)-3-(4-(N,N-dimethylsulfamoyl)phenyl)-N-((3S,4R)-3-hydroxy-2,2-dimethyl-8-oxo-2,3,4,8-tetrahydropyrano[3,2-g]chromen-4-yl)acrylamide] stands greater than 200 µM; under `CN(C)S(=O)(=O)c1ccc(/C=C/C(=O)O[C@@H]2Cc3cc4ccc(=O)oc4cc3OC2(C)C)cc1` [Example 17, (R,E)-2,2-dimethyl-8-oxo-2,3,4,8-tetrahydropyrano[3,2-g]chromen-3-yl 3-(4-(N,N-dimethylsulfamoyl)phenyl)acrylate], greater than 200 µM.
`CC1(C)Oc2cc3oc(=O)ccc3cc2[C@@H](NC(=O)/C=C/c2ccccn2)[C@@H]1O` [Example 21, (E)-N-((3S,4R)-3-hydroxy-2,2-dimethyl-8-oxo-2,3,4,8-tetrahydropyrano[3,2-g]chromen-4-yl)-3-(pyridin-2-yl)acrylamide] gave an IC50 greater than 200 µM.
Turning to `CC1(C)Oc2cc3oc(=O)ccc3cc2[C@@H](NC(=O)CCc2ccc3c(c2)OCO3)[C@@H]1O` [Example 24, 3-(benzo[d][1,3]dioxol-5-yl)-N-((3S,4R)-3-hydroxy-2,2-dimethyl-8-oxo-2,3,4,8-tetrahydropyrano[3,2-g]chromen-4-yl)propanamide], the 50% inhibitory concentration (IC50) was greater than 200 µM.
In turn, `CC1(C)Oc2cc3oc(=O)ccc3cc2C[C@H]1OC(=O)/C=C/c1ccc(C(F)(F)F)cc1` [Example 18, (R,E)-2,2-dimethyl-8-oxo-2,3,4,8-tetrahydropyrano[3,2-g]chromen-3-yl 3-(4-(trifluoromethyl)phenyl)acrylate] came in with an IC50 of 172 µM.
On to `CC1(C)Oc2cc3oc(=O)ccc3cc2C[C@@H]1OC(=O)/C=C/c1ccc(C(F)(F)F)cc1` [Example 9, (S,E)-2,2-dimethyl-8-oxo-2,3,4,8-tetrahydropyrano[3,2-g]chromen-3-yl 3-(4-(trifluoromethyl)phenyl)acrylate], for which the IC50 is greater than 200 µM.
`CC1(C)Oc2cc3oc(=O)ccc3cc2C[C@H]1OC(=O)/C=C/c1ccc2c(c1)OCO2` [Example 16, (R,E)-2,2-dimethyl-8-oxo-2,3,4,8-tetrahydropyrano[3,2-g]chromen-3-yl 3-(benzo[d][1,3]dioxol-5-yl)acrylate] yielded an IC50 greater than 200 µM.
The molecule `CC1(C)Oc2cc3oc(=O)ccc3cc2[C@@H](NC(=O)/C=C/c2ccc3c(c2)OCO3)[C@@H]1O` [Example 25, (E)-3-(benzo[d][1,3]dioxol-5-yl)-N-((3S,4R)-3-hydroxy-2,2-dimethyl-8-oxo-2,3,4,8-tetrahydropyrano[3,2-g]chromen-4-yl)acrylamide] showed an IC50 of 151 µM.
Molecule `CC1(C)Oc2cc3oc(=O)ccc3cc2[C@@H](NC(=O)CCc2ccccn2)[C@@H]1O` [Example 20, N-((3S,4R)-3-hydroxy-2,2-dimethyl-8-oxo-2,3,4,8-tetrahydropyrano[3,2-g]chromen-4-yl)-3-(pyridin-2-yl)propanamide] displayed an IC50 greater than 200 µM.
The molecule `CC1(C)Oc2cc3oc(=O)ccc3cc2C[C@@H]1OC(=O)/C=C/c1ccc2c(c1)OCO2` [Example 7, (S,E)-2,2-dimethyl-8-oxo-2,3,4,8-tetrahydropyrano[3,2-g]chromen-3-yl 3-(benzo[d][1,3]dioxol-5-yl)acrylate] yielded an IC50 greater than 200 µM.
The same measure, in the same setting: under `CC1(C)Oc2cc3oc(=O)ccc3cc2[C@@H](NC(=O)CCn2ccnc2)[C@@H]1O` [Example 19, N-((3S,4R)-3-hydroxy-2,2-dimethyl-8-oxo-2,3,4,8-tetrahydropyrano[3,2-g]chromen-4-yl)-3-(1H-imidazol-1-yl)propanamide] stands greater than 200 µM.
In turn, `CC(C)=CC(=O)O[C@H]1Cc2cc3ccc(=O)oc3cc2OC1(C)C` [Decursin, decursin] showed an IC50 of 43.6 µM.
`CC1(C)Oc2cc3oc(=O)ccc3cc2[C@@H](NC(=O)/C=C/c2ccc(C(F)(F)F)cc2)[C@@H]1O` [Example 27, (E)-N-((3S,4R)-3-hydroxy-2,2-dimethyl-8-oxo-2,3,4,8-tetrahydropyrano[3,2-g]chromen-4-yl)-3-(4-(trifluoromethyl)phenyl)acrylamide] gave an IC50 of 73.4 µM.
In the case of `CC1(C)Oc2cc3oc(=O)ccc3cc2C[C@@H]1OC(=O)CCn1ccnc1` [Example 1, (S)-2,2-dimethyl-8-oxo-2,3,4,8-tetrahydropyrano[3,2-g]chromen-3-yl 3-(1H-imidazol-1-yl)propanoate], the IC50 is greater than 200 µM.
`CC1(C)Oc2cc3oc(=O)ccc3cc2C[C@H]1OC(=O)/C=C/c1ccoc1` [Example 14, (R,E)-2,2-dimethyl-8-oxo-2,3,4,8-tetrahydropyrano[3,2-g]chromen-3-yl 3-(furan-3-yl)acrylate] displayed a half-maximal inhibitory concentration (IC50) of 152 µM.
The same measure, in the same setting: to `C/C(=C\c1ccccc1)C(=O)N[C@@H]1c2cc3ccc(=O)oc3cc2OC(C)(C)[C@H]1O` [Example 22, (E)-N-((3S,4R)-3-hydroxy-2,2-dimethyl-8-oxo-2,3,4,8-tetrahydropyrano[3,2-g]chromen-4-yl)-2-methyl-3-phenylacrylamide] belongs greater than 200 µM; to `CC1(C)Oc2cc3oc(=O)ccc3cc2[C@@H](NC(=O)/C=C/c2ccoc2)[C@@H]1O` [Example 23, (E)-3-(furan-3-yl)-N-((3S,4R)-3-hydroxy-2,2-dimethyl-8-oxo-2,3,4,8-tetrahydropyrano[3,2-g]chromen-4-yl)acrylamide], greater than 200 µM; to `C/C(=C\c1ccccc1)C(=O)O[C@H]1Cc2cc3ccc(=O)oc3cc2OC1(C)C` [Example 4, (S,E)-2,2-dimethyl-8-oxo-2,3,4,8-tetrahydropyrano[3,2-g]chromen-3-yl 2-methyl-3-phenylacrylate], 80.7 µM.
On to `CC1(C)Oc2cc3oc(=O)ccc3cc2C[C@H]1OC(=O)CCc1ccccn1` [Example 11, (R)-2,2-dimethyl-8-oxo-2,3,4,8-tetrahydropyrano[3,2-g]chromen-3-yl 3-(pyridin-2-yl)propanoate], for which the concentration for half-maximal inhibition (IC50) is greater than 200 µM.

The experiment is the same for the next values; noted with them: Homo sapiens, A549, 48 h, Method 2 (marked *): 3.125-50 μM, 48 hours.
Molecule `CC1(C)Oc2cc3oc(=O)ccc3cc2C[C@@H]1OC(=O)CCc1ccoc1` [Example 28, (S)-2,2-dimethyl-8-oxo-2,3,4,8-tetrahydropyrano[3,2-g]chromen-3-yl 3-(furan-3-yl)propanoate] yielded an IC50 of 96.1 µM.
For the molecule `CN(C)c1ccc(CC(=O)O[C@H]2Cc3cc4ccc(=O)oc4cc3OC2(C)C)cc1` [Example 29, (S)-2,2-dimethyl-8-oxo-2,3,4,8-tetrahydropyrano[3,2-g]chromen-3-yl 4-(dimethylamino)phenylacetate], the midpoint of inhibition, the IC50, lay at 52.4 µM.
`CC(C)=CC(=O)O[C@H]1Cc2cc3ccc(=O)oc3cc2OC1(C)C` [Decursin, decursin] registered a concentration for half-maximal inhibition (IC50) of 30.4 µM.
In turn, `CN(C)c1ccc(/C=C/C(=O)O[C@H]2Cc3cc4ccc(=O)oc4cc3OC2(C)C)cc1` [Example 30, (S,E)-2,2-dimethyl-8-oxo-2,3,4,8-tetrahydropyrano[3,2-g]chromen-3-yl 3-(4-(dimethylamino)phenyl)acrylate] returned an IC50 of 151 µM.
